B1: FasL (protein)
chain: PSPPPEKKELRKVAHLTGKSNSRSMPLEWEDTYGIVLLSGVKYKKGGLVINETGLYFVYSKVYFRGQSCNNLPLSHKVYMRNSKYPQDLVMMEGKMMSYCTTGQMWARSSYLGAVFNLTSADHLYVNVSELSLVNFEESQTFFGLYKL
B2: TRAIL: recombinant human TNF-related apoptosis-inducing ligand (protein, UniProt P50591 1-281, looked up)
Tumor necrosis factor ligand …: MAMMEVQGGPSLGQTCVLIVIFTVLLQSLCVAVTYVYFTNELKQMQDKYSKSGIACFLKEDDSYWDPNDEESMNSPCWQVKWQLRQLVRKMILRTSEETISTVQEKQQNISPLVRERGPQRVAAHITGTRGRSNTLSSPNSKNEKALGRKINSWESSRSGHSFLSNLHLRNGELVIHEKGFYYIYSQTYFRFQEEIKENTKNDKQMVQYIYKYTSYPDPILLMKSARNSCWSKDAEYGLYSIYQGGIFELKENDRIFVSVTNEHLIDMDHEASFFGAFLVG

Tests used:
CAMK1D mRNA = CAMK1D mRNA knockdown by qPCR; assay type: cell-based, human; details: KMM-1 cells, 48h after transfection, normalized to β-actin
Procedure: Gene expression was measured using end-point PCR. Briefly, total RNA was isolated from cell pellets using the RNeasy Mini kit (Qiagen) according to the manufacturer's guidelines. 1 μg of RNA was reverse transcribed to complementary DNA (cDNA) using the QuantiTect reverse transcription kit (Qiagen) according to the manufacturer's protocol. Synthesized cDNA was amplified using conventional PCR. PCR samples were set up in a 25 μL volume using 2×MyTaq HS Red Mix (Bioline), 500 nM of gene-specific primer mix and 100 ng of template cDNA. The PCR program was set as the following: 95° C. for 3 min, 35 cycles of 3 repetitive steps of denaturation (95° C. for 30 s), annealing (60° C. for 30 s) and extension (72° C. for 30 s), and a final step at 72° C. for 5 min. PCR products were run on a 2% agarose gel in TAE buffer using a gel electrophoresis system (Thermo Scientific) and DNA bands were visualized using UV light of myECL Imager (Thermo Scientific). Knockdown efficiency of siRNA sequences was measured by quantitative PCR (qPCR). For qPCR, 10 ng of template cDNA, 2× QuantiFast SYBR Green PCR mix (Qiagen) and 300 nM of gene-specific primer mix was used per 20 μL reaction and each sample was prepared in triplicates. Reactions were run using the QuantStudio 3 (Applied Biosystems). Expression of several genes was normalized to the expression of β-actin gene and the analysis was performed using comparative Ct method.
Gene knockdown in tumor cells was induced using reverse siRNA transfection with Lipofectamine RNAiMAX (Thermo Scientific). Briefly, 200 μL of 250 nM siRNA solution was added to each well of a 6-well plate. 4 μl of RNAiMAX transfection reagent was diluted in 196 μL of RPMI (Sigma-Aldrich) and incubated for 10 min at room temperature (RT). 400 μL of additional RPMI was added and 600 μL of RNAiMAX mix was given to the siRNA coated wells and incubated for 30 min at RT. 3.5×10^5 KMM-1 (WT or luc) cells were resuspended in 1.2 mL of antibiotic-free RPMI culture medium supplemented with 10% FCS, seeded in the siRNA-RNAiMAX containing wells and incubated for 48 h at 37° C., 5% CO2. […]

CAMK1D = CAMK1D protein knockdown by western blot; assay type: cell-based, human; details: KMM-1 cells, 48h after transfection
Procedure: (§1) Gene knockdown in tumor cells was induced using reverse siRNA transfection with Lipofectamine RNAiMAX (Thermo Scientific). Briefly, 200 μL of 250 nM siRNA solution was added to each well of a 6-well plate. 4 μl of RNAiMAX transfection reagent was diluted in 196 μL of RPMI (Sigma-Aldrich) and incubated for 10 min at room temperature (RT). 400 μL of additional RPMI was added and 600 μL of RNAiMAX mix was given to the siRNA coated wells and incubated for 30 min at RT. 3.5×10^5 KMM-1 (WT or luc) cells were resuspended in 1.2 mL of antibiotic-free RPMI culture medium supplemented with 10% FCS, seeded in the siRNA-RNAiMAX containing wells and incubated for 48 h at 37° C., 5% CO2. Final siRNA concentration was 25 nM in all cases.
30 μg of protein lysates were denaturated in 4×NuPAGE LDS Sample Buffer (Thermo Scientific) containing 100% ß-mercaptoethanol (PAN) at 70° C. for 10 min. Samples were spun down and separated on NuPAGE 4-12% Bis-Tris Gels (Thermo Scientific) along with PageRuler Prestained Protein Ladder (Thermo Scientific) and run at 115-150 V for 90 min.
Proteins were transferred from the gel to a PVDF membrane (Millipore) using a semi-dry western blot method. The PVDF blotting membrane (Merck Millipore) was activated in 100% methanol (Merck Millipore) for 1 min and afterwards placed in Transfer Buffer (Thermo Science) until use. Blots were assembled from anode to cathode into the Pierce Power Blot cassette (Thermo Scientific) and run at 24 V for 10 min. Membranes were washed in ix TBS and then placed in blocking solution (5% BSA/0.05% TBST) for 2 h. […] The blots were incubated with the ECL Detection Reagent (Reagent A and Reagent B, 1:1, GE Healthcare) for 4 min and the chemiluminescence was detected with myECL Imager (Thermo Scientific).

KMM-1-luc cells [1] = test: luciferase-based cytotoxicity assay of siRNA-transfected tumour cells co-cultured with MILs; assay type: cell-based, human; details: for T cell mediated cytotoxicity: co-culture with MILs, 10:1 E:T ratio; for viability impact of siRNA per se: viability setting, culture medium instead of T cells
Procedure: as §1
(§2) KMM-1-luc cells were reverse transfected with the desired siRNA sequences in white 96-well-plate (Perkin Elmer) and incubated for 48 h at 37° C., 5% CO2. At the same day of transfection MILs were thawn and treated with benzonase (too IU/mL) (Merck). Cell density was adjusted to 0.6×10^6 cells/mL in CLM supplemented with 3000 IU/mL rhuIL-2 (Novartis) for 48 h. IL-2 was depleted 24 h before the co-culture. Flu TC were thawn 6 h before co-culture. For the cytotoxicity setting, MILs, flu TC, the supernatant of activated MILs or rHuFasL were added to transfected tumor cells at desired E:T ratio/concentration, and incubated for 20 h at 37° C., 5% CO2. For the viability setting, only CLM was added to the tumor cells. After co-culture, supernatant was removed, remaining tumor cells were lysed using 40 μL/well of cell lysis buffer for 10 min. After tumor cell lysis, 60 μL/well of luciferase assay buffer was added and luciferase intensity was measured by using the Spark 20M plate reader (Tecan) with a counting time of 100 msec. Luciferase activities (relative luminescence units=RLUs) were either represented as raw luciferase values or as normalized data to scramble or unstimulated controls.

KMM-1-luc cells [2] = test: blocking assay: CaM inhibitor (W7) with or without rHuFasL, luciferase-based cytotoxicity assay; assay type: cell-based, human
Procedure: as §2
For the experiments using the anti-Calmodulin (W7) (Tocris) inhibitor, 1×10^4 KMM-1-luc (scr or CAMK1D-transfected) cells/well were seeded in white 96 well plates (Perkin Elmer) in 100 μL of RPMI 10% FCS. The small molecule inhibitor was added at the indicated concentrations for 1 h at 37° C., before 100 ng/mL rHuFasL or medium control was added. DMSO treatment served as negative control. After 20 h stimulation, luciferase-based cytotoxicity assay was performed. For CAMK1D inhibition, 1×10^4 KMM-1-luc or 1×10^4 Mel270 cells/well were incubated overnight in a 96 well plate. OMX2001 was added at the indicated concentrations 1 h before rHuFasL stimulation (100 ng/mL) or medium control. DMSO treatment served as negative control. After 20h stimulation, luciferase-based cytotoxicity assay was performed.

Mel270 cells = test: blocking assay: CAMK1D inhibitor plus rHuFasL, luciferase-based cytotoxicity assay; assay type: cell-based, human; details: Mel270 uveal melanoma cells; rHuFasL 100 ng/mL, 20 h
Procedure: as §2, with “controls. For the experiments using the anti-Calmodulin (W7) (Tocris) inhibitor, 1×10^4 KMM-1-luc (scr or CAMK1D-transfected) cells/well were seeded in white 96 well plates (Perkin Elmer) in 100 μL of RPMI 10% FCS. […]” for “controls.”

KMM-1-luc cells [3] = test: as above; assay type: cell-based, human; details: KMM-1 multiple myeloma cells; rHuFasL 100 ng/mL, 20 h
Procedure: as §2, with “controls. For the experiments using the anti-Calmodulin (W7) (Tocris) inhibitor, 1×10^4 KMM-1-luc (scr or CAMK1D-transfected) cells/well were seeded in white 96 well plates (Perkin Elmer) in 100 μL of RPMI 10% FCS. […]” for “controls.”

[4] = molecular target: T1, recombinantly expressed CAMK1D protein kinase (Homo sapiens, UniProt Q8IU85); test: radiometric protein kinase assay (33PanQinase Activity Assay) of CAMK1D kinase activity; assay type: biochemical; details: 10 concentrations (1x10-05 M to 3x10-10 M), singlicate; read-out: IC50 of CAMK1D kinase inhibition
T1 construct: purchased ProQinase (Freiburg, Germany)
Procedure: QPP was identified as CAMK1D inhibitor in a radiometric protein kinase assay (PanQinase® Activity Assay) used for measuring the kinase activity of a recombinantly expressed CAMK1D protein kinase. All assays were performed with a BeckmanCoulter/SAGIAN™ Core System.

KMM-1-luc cells [5] = test: treatment of scr or siCAMK1D transfected cells with recombinant FasL, TRAIL or TNF, luciferase activity; assay type: cell-based, human; details: siCAMK1D transfected KMM-1, 20h treatment
Procedure: as §2

Molecule	CAMK1D expression at mRNA level (CAMK1D mRNA)	CAMK1D expression at protein level (CAMK1D)	T cell mediated cytotoxicity (KMM-1-luc cells [1])	viability impact of siRNA per se (KMM-1-luc cells [1])	also measured
s1: siRNA targeting hCAMK1D, UGAAGUGUAUCCCUAAGAA, Dharmacon D-004946-01, SEQ ID NO. 3 (chemistry not given here)	significantly reduced CAMK1D expression	significantly reduced CAMK1D expression	increased T cell mediated cytotoxicity	no viability impact	–
s3: siRNA targeting hCAMK1D, CCGAAAAUCUCUUGUACUA, Dharmacon D-004946-03, SEQ ID NO. 5 (listed as RNA, chemistry not given here)	significantly reduced CAMK1D expression	significantly reduced CAMK1D expression	increased T cell mediated cytotoxicity	no viability impact	–
Cl.NCCCCCCNS(=O)(=O)c1cccc2c(Cl)cccc12 [W-7 hydrochloride]	–	–	–	–	effect on FasL induced tumour cell apoptosis (KMM-1-luc cells [2]; 5 μM, with rHuFasL): sharply recapitulated the effect of CAMK1D silencing; toxicity to KMM-1 cells (tumour cell survival by luciferase intensity) (KMM-1-luc cells [2]; 5 μM, without rHuFasL): not toxic; further increase of FasL-mediated tumour cell killing (KMM-1-luc cells [2]; combination of W-7 hydrochloride with CAMK1D silencing, after FasL exposure): 3 fold
s2: siRNA targeting hCAMK1D, CAAAUCACCUGUACUUGGU, Dharmacon D-004946-02, SEQ ID NO. 4 (listed as RNA, chemistry not given here)	significantly reduced CAMK1D expression	significantly reduced CAMK1D expression	increased T cell mediated cytotoxicity	no viability impact	–
Cc1cc(Nc2nc(-c3ccccc3)nc3ccccc23)n[nH]1 [QPP, (5-Methyl-1H-pyrazol-3-yl)-(2-phenylquinazolin-4-yl)amine]	–	–	–	–	tumour cell viability (luciferase intensity) after inhibitor plus recombinant FasL (Mel270 cells): induced a significant tumour cell viability; tumour cell viability (luciferase intensity) after inhibitor plus recombinant FasL (KMM-1-luc cells [3]): induced a significant tumour cell viability; IC50 [4]: 2940 nM
B1	–	–	–	–	reduction of CAMK1D-deficient tumour cells after exposure (KMM-1-luc cells [5]): dramatically reduced
B2	–	–	–	–	reduction of CAMK1D-deficient tumour cells after exposure (KMM-1-luc cells [5]): to a much lesser degree
